Data from ChEMBL document CHEMBL1157922, “Design of new dopamine D2 receptor ligands: biosynthesis and pharmacological evaluation of the hydroxylated metabolite of LASSBio-581” (Bioorg Med Chem Lett, 2010).

What was measured:
[1] = Displacement of [3H]YM-9151-2 from D2 like receptor in rat striatal membrane; format: cell membranes, Striatum
[2] = molecular target: 5-hydroxytryptamine receptor 2A (Rattus norvegicus, UniProt P14842); assay: Displacement of [3H]ketanserin from 5HT2A receptor in rat cortex membrane; format: cell membranes
Sequence of 5-hydroxytryptamine receptor 2A (P14842 whole entry): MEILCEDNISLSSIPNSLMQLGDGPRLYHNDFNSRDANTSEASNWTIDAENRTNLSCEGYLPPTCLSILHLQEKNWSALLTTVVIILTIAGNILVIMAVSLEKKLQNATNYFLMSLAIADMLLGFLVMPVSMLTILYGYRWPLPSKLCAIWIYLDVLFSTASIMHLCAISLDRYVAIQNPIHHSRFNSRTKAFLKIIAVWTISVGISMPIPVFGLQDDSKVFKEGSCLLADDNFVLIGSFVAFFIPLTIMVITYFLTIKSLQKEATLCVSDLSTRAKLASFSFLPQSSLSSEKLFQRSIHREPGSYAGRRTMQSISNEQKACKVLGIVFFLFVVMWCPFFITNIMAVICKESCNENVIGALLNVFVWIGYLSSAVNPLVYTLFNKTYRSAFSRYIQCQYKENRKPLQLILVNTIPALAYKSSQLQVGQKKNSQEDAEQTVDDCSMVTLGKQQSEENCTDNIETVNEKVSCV

SMILES | Ki [1] | Ki [2]
Oc1ccc(N2CCN(Cc3cn(-c4ccc(Cl)cc4)nn3)CC2)cc1 | 1700 nM | 
Clc1ccc(-n2cc(CN3CCN(c4ccccc4)CC3)nn2)cc1 | 950 nM | 11000 nM
